# Results reported in patent US10435361B2, “Kinase inhibitors” (Topivert Pharma Limited, priority 2013, dated 2019).
# Test system: PBMCs
# Experiment: LPS-induced TNFα/IL-8 release in PBMC cells
# Assay type: cell-based
# Conditions: Homo sapiens, assay (b), read-out: IC50 Values for Inhibition of Cytokine Release PBMCs IL-8
# Protocol: Peripheral blood mononuclear cells (PBMCs) from healthy subjects are separated from whole blood using a density gradient (Lymphoprep, Axis-Shield Healthcare). The PBMCs are seeded in 96 well plates and treated with compounds at the desired concentration for 2 hours before addition of 1 ng/mL LPS (Escherichia Coli 0111:B4 from Sigma Aldrich) for 24 hours under normal tissue culture conditions (37° C., 5% CO2). The supernatant is harvested for determination of IL-8 and TNFα concentrations by sandwich ELISA (Duo-set, R&D systems) and read on the fluorescence microplate reader (Varioskan® Flash, ThermoFisher Scientific).
row,Structure (SMILES),IC50 [nM]
1,"COCCOCCOCCOc1cc(Nc2nccc(Oc3ccc(NC(=O)Nc4cc(C(C)(C)C)ccc4OC)c4ccccc34)n2)cc(OC)c1 [Example 8, 1-(5-(tert-Butyl)-2-methoxyphenyl)-3-(4-((2-((3-methoxy-5-(2-(2-(2-methoxyethoxy)ethoxy)-ethoxy)phenyl)amino)pyrimidin-4-yl)oxy)naphthalen-1-yl)urea]",28.1
2,"C#Cc1cc(Nc2nccc(Oc3ccc(NC(=O)Nc4cc(C(C)(C)C)cc(C(=O)NC)c4OC)c4ccccc34)n2)cc(C(=O)NCCN2CCOCC2)c1 [Example 9, 5-(tert-Butyl)-3-(3-(4-((2-((3-ethynyl-5-((2-morpholinoethyl)carbamoyl)phenyl)amino)-pyrimidin-4-yl)oxy)naphthalen-1-yl)ureido)-2-methoxy-N-methylbenzamide]",1.2
3,"COCCOCCOCCOc1cc(Nc2nccc(Oc3ccc(NC(=O)Nc4cc(C(C)(C)C)cc(C(=O)N(C)C)c4OC)c4ccccc34)n2)cc(OC)c1 [Example 19, 5-(tert-Butyl)-2-methoxy-3-(3-(4-((2-((3-methoxy-5-(2-(2-(2-methoxyethoxy)ethoxy)-ethoxy)phenyl)amino)pyrimidin-4-yl)oxy)naphthalen-1-yl)ureido)-N,N-dimethylbenzamide]",8.7
4,"COCCOCCOCCOc1cc(Nc2nccc(Oc3ccc(NC(=O)Nc4cc(C(C)(C)C)cc(C(=O)O)c4OC)c4ccccc34)n2)cc(OC)c1 [Example 21, 5-(tert-Butyl)-2-methoxy-3-(3-(4-((2-((3-methoxy-5-(2-(2-(2-methoxyethoxy)ethoxy)-ethoxy)phenyl)amino)pyrimidin-4-yl)oxy)naphthalen-1-yl)ureido)benzoic acid]",34.4
5,"COCCOCCOCCOc1cc(Nc2nccc(Oc3ccc(NC(=O)Nc4cc(C(C)(C)C)cc(C#N)c4OC)c4ccccc34)n2)cc(OC)c1 [Example 22, 1-(5-(tert-Butyl)-3-cyano-2-methoxyphenyl)-3-(4-((2-((3-methoxy-5-(2-(2-(2-methoxy-ethoxy)ethoxy)ethoxy)phenyl)amino)pyrimidin-4-yl)oxy)naphthalen-1-yl)urea]",16.9
6,"COCCOCCOCCOc1cc(Nc2nccc(Oc3ccc(NC(=O)Nc4cc(C(C)(C)C)cc(N)c4OC)c4ccccc34)n2)cc(OC)c1 [Example 25, 1-(3-Amino-5-(tert-butyl)-2-methoxyphenyl)-3-(4-((2-((3-methoxy-5-(2-(2-(2-methoxy-ethoxy)ethoxy)ethoxy)phenyl)amino)pyrimidin-4-yl)oxy)naphthalen-1-yl)urea]",7
7,"COc1cc(Nc2nccc(Oc3ccc(NC(=O)Nc4cc(C(C)(C)C)cc(NS(C)(=O)=O)c4OC)c4ccccc34)n2)cc(C(=O)NCCOCCOCCC(=O)O)c1 [Example 26, 3-(2-(2-(3-((4-((4-(3-(5-(tert-Butyl)-2-methoxy-3-(methylsulfonamido)phenyl)ureido)-naphthalen-1-yl)oxy)pyrimidin-2-yl)amino)-5-methoxybenzamido)ethoxy)ethoxy)-propanoic acid]",21.7
8,"COCCOCCOCCOc1cc(Nc2nccc(Oc3ccc(NC(=O)Nc4cc(C(C)(C)C)cc(Nc5ncccn5)c4OC)c4ccccc34)n2)cc(OC)c1 [Example 28, 1-(5-(tert-Butyl)-2-methoxy-3-(pyrimidin-2-ylamino)phenyl)-3-(4-((2-((3-methoxy-5-(2-(2-(2-methoxyethoxy)ethoxy)ethoxy)phenyl)amino)pyrimidin-4-yl)oxy)naphthalen-1-yl)urea]",11.9
9,"COc1cc(Nc2nccc(Oc3ccc(NC(=O)Nc4cc(C(C)(C)C)cc(NS(C)(=O)=O)c4OC)c4ccccc34)n2)cc(OCCOCCOCCC(=O)O)c1 [Example 30, 3-(2-(2-(3-((4-((4-(3-(5-(tert-Butyl)-2-methoxy-3-(methylsulfonamido)phenyl)ureido)-naphthalen-1-yl)oxy)pyrimidin-2-yl)amino)-5-methoxyphenoxy)ethoxy)ethoxy)propanoic acid]",5.7
10,"COc1cc(Nc2nccc(Oc3ccc(NC(=O)Nc4cc(C(C)(C)C)cc(NS(C)(=O)=O)c4OC)c4ccccc34)n2)cc(OCCOCCC(=O)O)c1 [Example 31, 3-(2-(3-((4-((4-(3-(5-(tert-Butyl)-2-methoxy-3-(methylsulfonamido)phenyl)ureido)-naphthalen-1-yl)oxy)pyrimidin-2-yl)amino)-5-methoxyphenoxy)ethoxy)propanoic acid]",7.2
11,"CNC(=O)c1cc(N2CCOCC2)cc(NC(=O)Nc2ccc(Oc3ccnc(Nc4cc(OC)cc(OCCOCCOCCOC)c4)n3)c3ccccc23)c1OC [Example 32, 2-Methoxy-3-(3-(4-((2-((3-methoxy-5-(2-(2-(2-methoxyethoxy)ethoxy)ethoxy)phenyl)-amino)pyrimidin-4-yl)oxy)naphthalen-1-yl)ureido)-N-methyl-5-morpholinobenzamide]",7.7
12,"COCCOCCOCCOc1cc(Nc2nccc(Oc3ccc(NC(=O)Nc4cc(C(C)(C)C)cc(C(=O)NC5CC5)c4OC)c4ccccc34)n2)cc(OC)c1 [Example 33, 5-(tert-Butyl)-N-cyclopropyl-2-methoxy-3-(3-(4-((2-((3-methoxy-5-(2-(2-(2-methoxy-ethoxy)ethoxy)ethoxy)phenyl)amino)pyrimidin-4-yl)oxy)naphthalen-1-yl)ureido)-benzamide]",4.2
13,"COCCOCCOCCOc1cc(Nc2nccc(Oc3ccc(NC(=O)Nc4cc(C(C)(C)C)cc(C(=O)NCc5ccccc5)c4OC)c4ccccc34)n2)cc(OC)c1 [Example 38, N-Benzyl-5-(tert-butyl)-2-methoxy-3-(3-(4-((2-((3-methoxy-5-(2-(2-(2-methoxyethoxy)-ethoxy)ethoxy)phenyl)amino)pyrimidin-4-yl)oxy)naphthalen-1-yl)ureido)benzamide]",6.3
14,"COCCOCCOCCOCCOCCOCCOCCNC(=O)c1cc(Nc2nccc(Oc3ccc(NC(=O)Nc4cc(C(C)(C)C)cc(NS(C)(=O)=O)c4OC)c4ccccc34)n2)cc(OC)c1 [Example 40, 3-((4-((4-(3-(5-(tert-Butyl)-2-methoxy-3-(methylsulfonamido)phenyl)ureido)naphthalen-1-yl)oxy)pyrimidin-2-yl)amino)-N-(2,5,8,11,14,17,20-heptaoxadocosan-22-yl)-5-methoxy-benzamide]",3.1
15,CCNC(=O)c1cc(C(C)(C)C)cc(NC(=O)Nc2ccc(Oc3ccnc(Nc4cc(OC)cc(OCCOCCOCCOC)c4)n3)c3ccccc23)c1OC [Example 41],4.5
16,"COCCOCCOCCOc1cc(Nc2nccc(Oc3ccc(NC(=O)Nc4cc(C(C)(C)C)cc(C(=O)NC(C)C)c4OC)c4ccccc34)n2)cc(OC)c1 [Example 42, 5-(tert-Butyl)-N-isopropyl-2-methoxy-3-(3-(4-((2-((3-methoxy-5-(2-(2-(2-methoxyethoxy)-ethoxy)ethoxy)phenyl)amino)pyrimidin-4-yl)ox)naphthalen-1-yl)ureido)benzamide]",6.6
17,"COCCNC(=O)c1cc(C(C)(C)C)cc(NC(=O)Nc2ccc(Oc3ccnc(Nc4cc(OC)cc(OCCOCCOCCOC)c4)n3)c3ccccc23)c1OC [Example 43, 5-(tert-Butyl)-2-methoxy-3-(3-(4-((2-((3-methoxy-5-(2-(2-(2-methoxyethoxy)ethoxy)-ethoxy)phenyl)amino)pyrimidin-4-yl)oxy)naphthalen-1-yl)ureido)-N-(2-methoxyethyl)-benzamide]",2
18,"COCCOCCOCCOc1cc(Nc2nccc(Oc3ccc(NC(=O)Nc4cc(C(C)(C)C)cc(C(=O)NCC(=O)O)c4OC)c4ccccc34)n2)cc(OC)c1 [Example 44, 2-(5-(tert-Butyl)-2-methoxy-3-(3-(4-((2-((3-methoxy-5-(2-(2-(2-methoxyethoxy)ethoxy)-ethoxy)phenyl)amino)pyrimidin-4-yl)oxy)naphthalen-1-yl)ureido)benzamido)acetic acid]",86.8
19,"COc1cc(Nc2nccc(Oc3ccc(NC(=O)Nc4cc(C(C)(C)C)cc(NS(C)(=O)=O)c4OC)c4ccccc34)n2)cc(C(=O)C2CC2)c1 [Example 50, N-(5-(tert-Butyl)-3-(3-(4-((2-((3-(cyclopropanecarbonyl)-5-methoxyphenyl)amino)-pyrimidin-4-yl)oxy)naphthalen-1-yl)ureido)-2-methoxyphenyl)methanesulfonamide]",12.1
20,"C#Cc1cc(Nc2nccc(Oc3ccc(NC(=O)Nc4cc(C(C)(C)C)cc(C(=O)NC)c4OC)c4ccccc34)n2)cc(C(=O)N[C@@H](C)CN2CCOCC2)c1 [Example 60, (S)-5-(tert-Butyl)-3-(3-(4-((2-((3-ethynyl-5-((1-morpholinopropan-2-yl)carbamoyl)phenyl)amino)pyrimidin-4-yl)oxy)naphthalen-1-yl)ureido)-2-methoxy-N-methylbenzamide]",2
21,"C#Cc1cc(Nc2nccc(Oc3ccc(NC(=O)Nc4cc(C(C)(C)C)cc(C(=O)NC)c4OC)c4ccccc34)n2)cc(C(=O)N[C@H](C)CN2CCOCC2)c1 [Example 61, (R)-5-(tert-Butyl)-3-(3-(4-((2-((3-ethynyl-5-((1-morpholinopropan-2-yl)carbamoyl)phenyl)amino)pyrimidin-4-yl)oxy)naphthalen-1-yl)ureido)-2-methoxy-N-methylbenzamide]",2.1
22,"COCCOCCOCCOc1cc(Nc2nccc(Oc3ccc(NC(=O)Nc4cc(C(C)(C)C)cc5[nH]c(=O)oc45)c4ccccc34)n2)cc(OC)c1 [Example 63, 1-(5-(tert-Butyl)-2-oxo-2,3-dihydrobenzo[d]oxazol-7-yl)-3-(4-((2-((3-methoxy-5-(2-(2-(2-methoxyethoxy)ethoxy)ethoxy)phenyl)amino)pyrimidin-4-yl)oxy)naphthalen-1-yl)urea]",17.3
23,"COCCOCCOCCOc1cc(Nc2nccc(Oc3ccc(NC(=O)Nc4cc(C(C)(C)C)cc5nc(C)oc45)c4ccccc34)n2)cc(OC)c1 [Example 64, 1-(5-(tert-Butyl)-2-methylbenzo[d]oxazol-7-yl)-3-(4-((2-((3-methoxy-5-(2-(2-(2-methoxy-ethoxy)ethoxy)ethoxy)phenyl)amino)pyrimidin-4-yl)oxy)naphthalen-1-yl)urea]",10.5
